Results on 17 molecules are retold here after patent US4119635A, “Substituted 1,2,4-triazole derivatives” (Gruppo Lepetit S.p.A., priority 1971, dated 1978).

The subject of data set [1] is mice. In words: Righting reflex (S. Irwin scheme). Type of data set: in vivo. Conditions: Mus musculus, ip, read-out: Impairment of righting reflex ED50. From the text: (§1) As stated before, the compounds of the invention have CNS depressant utility. More exactly, the compounds of Examples 1,2,3,5-10, 14, 31(42), 32(56), 34, 35 and 45(55) are useful as sedatives and hypnotics. These pharmacological properties were ascertained by following the operative scheme and the manipulation procedure described by S. Irwin in Psychopharmacologia (Berl.), 13, 222, 1968. Especially, there were studied the biological effects of the compounds on two of the parameters which are closely related to the above properties, namely the "spontaneous activity" and the "righting reflex". The effects of the compounds on these two parameters were expressed as ED50 values ie., the amount of compound tested which reduces the spontaneous activity and righting reflex scores of test animals to 50% of those of the controls. The scores are the same as those reported by S. Irwin in the cited paper. For each compound it was also determined the minimal dosis which produces complete hypnosis of the test animals (MHD).
(§2) The obtained results are summarized in the following table, which also reports the toxicities of the tested substances, expressed as LD50 values. For comparison purposes, also the activity of two known compounds was determined. The known compounds are 1-methyl-3,5-diphenyl-1,2,4-triazole (Compound A, Atkinson et al. Journ. Chem. Soc., 1954, 141, 1954) and 1-methyl-3-phenyl-5-(p-chlorophenyl)-1,2,4-triazole (Compound B, Huisgen et al., Journ. Org. Chem., 24, 892, 1959).

The next data set is described as follows: Toxicity (LD50). Conditions: mouse, in vivo, ip. The protocol:
as §2

Data set [2] deals with mice. In words: Spontaneous activity (S. Irwin scheme). Type of data set: in vivo. The note with it: Mus musculus, ip, read-out: Decrease of spontaneous activity ED50.
From the text: as §1, §2

Data set [3] has as its system mice. In words: Minimal dosis which produces complete hypnosis (MHD). The note with it: Mus musculus, ip, read-out: Minimal hypnotic dosis. It counts as in vivo.
From the text: as §1

The next data set relates to rats. Description: Secondary response avoidance test (G. Maffii), antianxiety effect. Type of data set: in vivo. The note with it: 20 mg/kg i.p. How it is done: The compounds of Examples 34 and 45(55) are also useful as anxiety relieving means. This property was investigated on the basis of the secondary response avoidance test, which was performed as described by G. Maffii, Journ. Pharm. Pharmacol., 11, 192, 1959.

[4] abbreviates: mice, dose reducing score to 50% of controls.

Like-named read-outs stand apart in the source and are kept apart here.

On to `Cc1cccc(-c2nc(-c3ccccc3CO)n(C)n2)c1` [Example 7], for which the ED50 (in general, the midpoint of the dose-response relation) was 20 mg/kg in the data set with mice [1] (setting [4]) and 30 mg/kg in the data set with mice [2] (setting [4]). Moreover, in the data set “Toxicity (LD50)”, the LD50 (in general, the dose expected to kill half of the subjects tested) turned out to be 500 mg/kg. In the data set on mice [3] (mice, complete hypnosis), the minimal effective dose came out at 80 mg/kg.

In the case of `Cn1nc(-c2ccccc2Cl)nc1-c1ccccc1CO` [Example 2], the ED50 in the data set on mice [1] and in the data set on mice [2] was 60 mg/kg throughout. For the same molecule, the median lethal dose (LD50) in “Toxicity (LD50)” (mice, read-out: Toxicity LD50) worked out at 500 mg/kg. The minimal effective dose in the data set with mice [3] (mice, complete hypnosis) was determined as 300 mg/kg.

For the molecule `Cn1nc(-c2ccc3c(c2)OCO3)nc1-c1ccccc1CO` [Example 14], the median effective dose (ED50) in the data set on mice [1] (setting [4]) and with mice [2] (setting [4]) was 80 mg/kg throughout. Besides, the LD50 in “Toxicity (LD50)” was greater than 1000 mg/kg. For the same molecule, the minimal effective dose with mice [3] (mice, complete hypnosis) is 300 mg/kg.

Consider `Cn1nc(-c2ccccc2)nc1-c1ccccc1` [Compound A, 1-methyl-3,5-diphenyl-1,2,4-triazole, reference compound], for which the figures for the ED50 with mice [1] and with mice [2] were 300 mg/kg and greater than 100 mg/kg, respectively. Besides, the median lethal dose (LD50) in the data set “Toxicity (LD50)” (mice, read-out: Toxicity LD50) was determined as 1000 mg/kg. The minimal effective dose with mice [3] was greater than 1000 mg/kg.

Turning to `Cc1ccccc1-c1nc(-c2ccccc2)nn1C` [31(42), 1-Methyl-5-(o-tolyl)-3-phenyl-1,2,4-triazole], the ED50 in the data set with mice [1] was 50 mg/kg; in the data set on mice [2], 60 mg/kg. For the same molecule, the median lethal dose (LD50) in the data set “Toxicity (LD50)” (mice, read-out: Toxicity LD50) was greater than 1000 mg/kg. For the same molecule, the minimal effective dose in the data set with mice [3] (mice, complete hypnosis) amounted to 300 mg/kg.

For the molecule `Cc1ccc(-c2nc(-c3ccccc3CO)n(C)n2)cc1` [Example 8], the figures for the median effective dose (ED50) in the data set on mice [1] (setting [4]) and in the data set on mice [2] (setting [4]) were 100 mg/kg and 80 mg/kg, respectively. This molecule yielded an LD50 in “Toxicity (LD50)” greater than 1000 mg/kg. Further, the minimal effective dose in the data set on mice [3] (mice, complete hypnosis) was determined as 600 mg/kg.

Consider `Cn1nc(-c2cccc(F)c2)nc1-c1ccccc1CO` [Example 5], for which the ED50 in the data set on mice [1] came out at 50 mg/kg; with mice [2] it was 30 mg/kg. In addition, in the data set “Toxicity (LD50)” (mice, read-out: Toxicity LD50), the median lethal dose (LD50) amounted to 400 mg/kg. In the data set on mice [3] (mice, complete hypnosis), the minimal effective dose turned out to be 150 mg/kg.

For the molecule `COc1cccc(-c2nc(-c3ccccc3C)n(C)n2)c1` [Example 35, 1-Methyl-3-(3-methoxyphenyl)-5-(o-tolyl)-1,2,4-triazole], the ED50 in the data set on mice [1] is 50 mg/kg; with mice [2], 60 mg/kg. Further, the LD50 in the data set “Toxicity (LD50)” (mice, read-out: Toxicity LD50) came to 1000 mg/kg. Further, in the data set on mice [3] (mice, complete hypnosis), the minimal effective dose was found to be 300 mg/kg.

In the case of `COc1cccc(-c2nc(-c3ccccc3CO)n(C)n2)c1` [Example 9], the ED50 with mice [1] (setting [4]) and in the data set on mice [2] (setting [4]) was 60 mg/kg throughout. This molecule also registered an LD50 in “Toxicity (LD50)” of 1000 mg/kg. Also, in the data set with mice [3] (mice, complete hypnosis), the minimal effective dose came out at 300 mg/kg.

As for `Cc1ccccc1-c1nc(-c2ccccc2CO)n(C)n1` [Example 6, 1-methyl-3-(o-tolyl)-5-(2-hydroxymethylphenyl)-1,2,4-triazole], the ED50 worked out at 25 mg/kg in the data set on mice [1] and 50 mg/kg with mice [2]. In “Toxicity (LD50)” (mice, read-out: Toxicity LD50), the LD50 stood at 1000 mg/kg. Besides, in the data set on mice [3] (mice, complete hypnosis), the minimal effective dose came to 600 mg/kg.

For `Cn1nc(-c2cccc([N+](=O)[O-])c2)nc1-c1ccccc1CO` [Example 10, 1-methyl-3-(3-nitrophenyl)-5-(2-hydroxymethylphenyl)-1,2,4-triazole], the 50% effective dose (ED50) in the data set on mice [1] (setting [4]) was found to be 40 mg/kg; in the data set with mice [2] (setting [4]), 60 mg/kg. Moreover, the median lethal dose (LD50) in “Toxicity (LD50)” (mice, read-out: Toxicity LD50) worked out at 1000 mg/kg. For the same molecule, in the data set with mice [3] (mice, complete hypnosis), the minimal effective dose turned out to be 300 mg/kg.

`Cc1cccc(-c2nc(-c3ccccc3C)n(C)n2)c1` [32(56), 1-Methyl-3-(m-tolyl)-5-(o-tolyl)-1,2,4-triazole]: the ED50 stood at 20 mg/kg in the data set with mice [1] and 30 mg/kg in the data set with mice [2]. For the same molecule, the 50% lethal dose (LD50) in the data set “Toxicity (LD50)” (mice, read-out: Toxicity LD50) is greater than 1000 mg/kg. In the data set with mice [3] (mice, complete hypnosis), the minimal effective dose amounted to 200 mg/kg.

With `Cn1nc(-c2cccc(Cl)c2)nc1-c1ccccc1CO` [Example 3], the values for the 50% effective dose (ED50) in the data set with mice [1] and in the data set on mice [2] were 10 mg/kg and 30 mg/kg, respectively. The LD50 in “Toxicity (LD50)” (mice, read-out: Toxicity LD50) was 500 mg/kg. Further, the minimal effective dose in the data set with mice [3] (mice, complete hypnosis) stood at 200 mg/kg.

For `Cc1ccccc1-c1nc(-c2cccc(Cl)c2)nn1C` [45(55), 1-Methyl-3-(3-chlorophenyl)-5-(o-tolyl)-1,2,4-triazole], the ED50 in the data set with mice [1] is 50 mg/kg; in the data set on mice [2], 30 mg/kg. Also, in the data set “Toxicity (LD50)” (mice, read-out: Toxicity LD50), the LD50 came out at 700 mg/kg. Further, the minimal effective dose in the data set on mice [3] (mice, complete hypnosis) was determined as 300 mg/kg. In addition, the antianxiety effect result in the data set on rats is given as “remarkable antianxiety effect”.

In the case of `Cn1nc(-c2ccccc2)nc1-c1ccccc1CO` [Example 1, 5-(2-Hydroxymethylphenyl)-1-methyl-3-phenyl-1,2,4-triazole], the 50% effective dose (ED50) with mice [1] (setting [4]) was found to be 100 mg/kg; in the data set with mice [2] (setting [4]) it was 60 mg/kg. For the same molecule, in “Toxicity (LD50)” (mice, read-out: Toxicity LD50), the LD50 was determined as 1000 mg/kg. For the same molecule, in the data set on mice [3] (mice, complete hypnosis), the minimal effective dose is 300 mg/kg.

For `Cc1ccccc1-c1nc(-c2cccc(N)c2)nn1C` [Example 34, 1-Methyl-3-(3-aminophenyl)-5-(o-tolyl)-1,2,4-triazole], the median effective dose (ED50) was found to be 20 mg/kg with mice [1] and 30 mg/kg in the data set with mice [2]. In addition, the median lethal dose (LD50) in “Toxicity (LD50)” (mice, read-out: Toxicity LD50) came to 200 mg/kg. In addition, the minimal effective dose in the data set on mice [3] (mice, complete hypnosis) came to 60 mg/kg. Further, in the data set on rats, the antianxiety effect entry is on record as “remarkable antianxiety effect”.

In the case of `Cn1nc(-c2ccccc2)nc1-c1ccc(Cl)cc1` [Compound B, 1-methyl-3-phenyl-5-(p-chlorophenyl)-1,2,4-triazole, reference compound], the ED50 with mice [1] (setting [4]) and in the data set on mice [2] (setting [4]) was greater than 300 mg/kg in each case. Further, the LD50 in the data set “Toxicity (LD50)” (mice, read-out: Toxicity LD50) is greater than 1000 mg/kg. Also, the minimal effective dose with mice [3] (mice, complete hypnosis) is greater than 600 mg/kg.
